Test results published in PMC12030627, “Radioiodinated Bicyclic RGD Peptide Derivatives for Enhanced Tumor Accumulation” (Pharmaceuticals, 2025).
Starred links: 1 amine or outer side, 2 acyl side, 3 side chain; linkers in the order of their positions; H or OH if unused. Positions of bridges follow the written chain, without caps; N, C: chain ends. Non-standard residues stand in square brackets, D forms with d. Residues, ends and D or L forms follow the SMILES beside them. *: point of attachment. Butanoyl(4-(4-I-phenyl)) = O=C(CCCc1ccc(I)cc1)*; TBMB = c1c(C[*:1])cc(C[*:3])cc1C[*:2]; Palmitoyl = CCCCCCCCCCCCCCCC(=O)*; Benzoyl(3-I) = O=C(c1cccc(I)c1)*; 4Abz = Nc1ccc(C(=O)O)cc1

System: U-87 MG-bearing mice
Test: Biodistribution in U-87 MG tumor-bearing mice
Assay type: in vivo, BALB/c nu-nu mice
Details: U-87 MG-bearing mice, mean ± SD, n = 3
Method: Animal experiments were performed in compliance with institutional animal care regulations, with the study protocol approved by the Experimental Animal Committee of Osaka Medical and Pharmaceutical University (Approval Numbers: 21–76, 22–76, and 23–76). Four-week-old male BALB/c nu-nu mice (Japan SLC, Shizuoka, Japan) were housed under a 12 h light/12 h dark cycle with free access to food and water. Tumor-bearing mice were established by suspending U-87 MG cells (2 × 10^6 cells/mouse) in PBS(–) and subcutaneously injecting 100 μL of the suspension into the right hind leg. For co-implantation models, A549 cells (2 × 10^6 cells/mouse) were suspended in PBS(–) and inoculated (100 μL) into the left hind leg of the same mice already inoculated with U-87 MG cells. Mice with tumor size approximately 10 mm in diameter, 4–5 weeks after inoculation, were used for biodistribution studies. Animals in which either tumor was not viable were excluded from the experiment.
U-87 MG-bearing mice (n = 42, 8–9 weeks old; 22–27 g) were randomly assigned into groups and administered [^125I]bcRGDpal or [^125I]bcRGDiba via intravenous injection (37 kBq in 100 μL of PBS containing 0.1% Tween 80 (PBS-T80)). At 5 min, 30 min, 1 h, 2 h, 6 h, 12 h, or 24 h post-injection, the mice were euthanized (n = 3 per time point). The heart, kidneys, liver, brain, pancreas, spleen, lung, small intestine, large intestine, muscle, skin, stomach, bone, and tumors were excised. Each organ’s weight and radioactivity were measured by a NaI well-type scintillation counter, and the % ID/g was calculated. To investigate the correlation between integrin expression and radioactivity accumulation, biodistribution at 2 h after administration of [^125I]bcRGDpal or [^125I]bcRGDiba was assessed in A549 and U-87 MG co-implantation mice (n = 5) using the same procedure. Additionally, co-implantation mice were injected with [^125I]bcRGDdimer (37 kBq/100 μL PBS-T80) and euthanized at 30 min, 2 h, and 4 h post-injection (n = 4 per time point), and % ID/g values were calculated as described above. The minimum sample size needed for the biodistribution study in U-87 MG-bearing mice was calculated using G Power software version 3.1.9.7. The calculation was based on a two-tailed test, with an effect size of 3.9, a significance level (α) of 0.05, and a statistical power (1 − β) of 0.8. […] The minimum required sample size for the biodistribution study in A549 and U-87 MG co-implantation mice was also calculated to be four animals per group (effect size = 2.5, α = 0.05, 1 − β = 0.8). To guarantee objective results, the experiment was carried out in a blinded manner. Specifically, drug administration and radioactivity measurements were conducted by different investigators to eliminate potential bias.

[1] = 5 min after i.v. administration
[2] = 30 min after i.v. administration

Structure (SMILES)	U87/Blood radioactivity ratio [1]	U87/Blood radioactivity ratio [2]	U87/Muscle radioactivity ratio [2]	U87/Blood radioactivity ratio (1 h after i.v. administration)	U87/Muscle radioactivity ratio (1 h after i.v. administration)	U87/Blood radioactivity ratio (2 h after i.v. administration)	U87/Muscle radioactivity ratio (2 h after i.v. administration)	U87/Blood radioactivity ratio (6 h after i.v. administration)	U87/Muscle radioactivity ratio (6 h after i.v. administration)	Radioactivity in thyroid (12 h after i.v. administration)	U87/Blood radioactivity ratio (12 h after i.v. administration)	U87/Muscle radioactivity ratio (12 h after i.v. administration)	Radioactivity in U-87 MG tumor (24 h after i.v. administration)	Radioactivity in brain (24 h after i.v. administration)	Radioactivity in thyroid (24 h after i.v. administration)	U87/Blood radioactivity ratio (24 h after i.v. administration)	U87/Muscle radioactivity ratio (24 h after i.v. administration)	U87/Muscle radioactivity ratio [1]
CCCCCCCCCCCCCCCC(=O)N[C@@H](CCCCNC(=O)c1cccc(I)c1)C(=O)N1CCC[C@H]1C(=O)N1CCC[C@H]1C(=O)N1CCC[C@H]1C(=O)N[C@@H](CO)C(=O)NCC(=O)Nc1ccc(C(=O)N[C@@H](CO)C(=O)NCC(=O)N[C@H]2CSCc3cc4cc(c3)CSC[C@@H](NC(=O)[C@H](CCC(N)=O)NC(=O)[C@@H]3CCCN3C(=O)[C@H](Cc3c[nH]cn3)NC2=O)C(=O)N[C@@H](CCCNC(=N)N)C(=O)NCC(=O)N[C@@H](CC(=O)O)C(=O)N[C@@H](C(N)=O)CSC4)cc1 [[^125I]bcRGDpal] (Palmitoyl-K(Benzoyl(3-I))PPPSG[4Abz]SGCHPQ[dC]RGD[dC]-NH2; linker 10-14-18 via TBMB)	0.1 ± 0.0	0.3 ± 0.0	2.1 ± 0.3	0.4 ± 0.1	2.9 ± 0.2	0.5 ± 0.0	3.7 ± 0.4	0.5 ± 0.1	3.3 ± 0.8	0.0 ± 0.0 % injected dose	0.4 ± 0.0	3.4 ± 0.5	0.3 % ID/g	0.0 ± 0.0 % injected dose per gram of tissue	0.0 ± 0.0 % injected dose	0.5 ± 0.1	2.4 ± 0.4	
N=C(N)NCCC[C@@H]1NC(=O)[C@H]2CSCc3cc(cc(c3)CSC[C@H](C(N)=O)NC(=O)[C@H](CC(=O)O)NC(=O)CNC1=O)CSC[C@H](NC(=O)CNC(=O)[C@H](CO)NC(=O)c1ccc(NC(=O)CNC(=O)[C@H](CO)NC(=O)[C@@H]3CCCN3C(=O)[C@@H]3CCCN3C(=O)[C@@H]3CCCN3C(=O)[C@H](CCCCNC(=O)c3cccc(I)c3)NC(=O)CCCc3ccc(I)cc3)cc1)C(=O)N[C@@H](Cc1c[nH]cn1)C(=O)N1CCC[C@H]1C(=O)N[C@@H](CCC(N)=O)C(=O)N2 [[^125I]bcRGDiba] ({Butanoyl(4-(4-I-phenyl))}-K(Benzoyl(3-I))PPPSG[4Abz]SGCHPQ[dC]RGD[dC]-NH2; linker 10-14-18 via TBMB)	0.1 ± 0.0	0.2 ± 0.0	2.3 ± 0.6	0.2 ± 0.0	2.3 ± 0.4	0.3 ± 0.0	2.4 ± 0.3	0.3 ± 0.0	2.5 ± 0.3	0.0 ± 0.0 % injected dose	0.4 ± 0.1	2.6 ± 0.3	0.5 % ID/g	0.0 ± 0.0 % injected dose per gram of tissue	0.0 ± 0.0 % injected dose	0.4 ± 0.1	2.1 ± 0.4	1.6 ± 0.3
